Assay results taken from patent US10935541B2 (priority 2014, dated 2021).
Entries after “also recorded” stand apart in the source; their conditions may differ. Like-named read-outs stand apart in the source and are kept apart here.

Assays:
[1] = test system: co-cultures of primary rat muscle cells and motoneurons; type: cell-based; details: for average contraction frequency: co-culture 13 days in vitro, n=10, spontaneous 1.4 Hz; for contractile force (average peak force): mean ± SEM
Procedure: (§1) Myotube contraction was recorded and characterized via measurement of cantilever deflection using an automated system. In this system, cantilevers supporting co-cultured myotubes and motoneurons were inserted into a transparent culture dish fitted into a modified upright Olympus BX51WI electrophysiology microscope. The culture dish was filled with NBActiv4 medium (+10 mM HEPES) to maintain the cells during the analysis. A heated culture dish system (Delta T, Bioptechs, Butler, Pa.) was incorporated into the stage to maintain the culture at 37° C. throughout the analysis.
The automated system consisted of a Helium Neon laser beam that was automatically scanned across the tips of each cantilever at a 30° angle relative to the plane of the cantilever. A quadrant photo-detector module was also moved to detect the reflected beam. Four stepper motor-driven linear actuators attached to XY translational stages controlled the positions of the laser and photo-detector, with each unit mounted to an XY stage and requiring an actuator for the X and Y translation directions. A temperature-controlled stage was incorporated into the unit to maintain the cells at physiological temperature. Stainless steel electrodes were mounted inside the stage dish at a separation distance of 15 mm. To allow the system to produce field stimulation of myotubes when appropriate, the electrodes were connected to a pulse generator (A-M systems, Sequim, Wash.), which was capable of producing field stimulation pulses of varying intensity, frequency, and waveform.
(§2) Broad field electrical stimulation was first used to verify the contractile ability of the cultured myotubes. Cultures were subjected to a 3 V, 40 ms pulse at a frequency of 1 Hz, and the cantilevers were scanned for 5 seconds each to identify those with active myotubes. Across all experimental conditions, a successful contractile response was taken as any peak equal to or larger than 0.1 V.
(§3) The electrical stimulus was then switched off and the active cantilevers scanned again in order to observe the rate of spontaneous contraction. This condition was followed by bath application of 200 μM glutamate to stimulate motoneuron firing, and the cantilevers were again scanned for evidence of contractile activity. A second application of glutamate was made following addition of 12.5 μM D-tubocurarine (Sigma-Aldrich) to block neuromuscular transmission. The cantilevers were again scanned for contractile activity following this treatment. Finally, cantilevers were subjected to the same broad-field electrical stimulation as was used initially and scanned for contractile activity to verify that the treatments had not destroyed the contractile capability of the myotube or caused the cells to detach.
(§4) Conversion of photo-detector readings to cantilever deflection and myotube force were performed using a modified Stoney's equation (Wilson et al., 2010). Briefly, the photo-detector measured the changes in cantilever bending-induced laser deflection (reported in Volts) from which the deflection of the cantilever tip was calculated. Equations (1) and (2) are restated equations (see, e.g., Wilson et al., 2010) for cantilever tip deflection (δ) and stress produced by the myotube, assuming a uniform thick film the full width of the cantilever (σc). The system parameters used in these equations were the system-specific coefficient relating voltage to laser position on the photo-detector (Cdetector), the angle of the laser and detector relative to the plane of the cantilever (A), the elastic modulus of silicon (ESi), the thicknesses of the cantilever (tSi) and myotube (tf), poison's ratio of silicon (vSi), cantilever length (L), path length of laser from cantilever tip to detector (P), and the width of the cantilever (wsi).
(§5) Differences in force per contraction and in contraction frequency were measured for the three conditions: (i) Spontaneous activity, (ii) 200 μM glutamate, and (iii) 12.5 μM D-tubocurarine following glutamate. […]

[2] = test system: myotubes from muscle-only cultures; type: cell-based, rat
Procedure: Muscle-only control cultures were established in parallel to all co-cultures examined. These cultures were subjected to identical culture parameters minus the plating of ventral horn cells after 7 days in vitro.
as §1, §2, §3, §4
as §5, with “glutamate. The differences were evaluated statistically using one-way repeated measures ANOVA (α=0.05) both for the muscle-only controls and for the motoneuron-myotube co-cultures.” for “glutamate.”

ventral horn motoneurons = assay: Whole-cell patch-clamp recording of cultured motoneurons, response to glutamate; type: cell-based, rat
Description: After 11-13 days in vitro, electrophysiological properties of ventral horn motoneurons were investigated using whole-cell patch-clamp recording techniques. Glass coverslips with cultured ventral horn cells were transferred to a recording chamber located on the stage of a Zeiss Axioscope 2FS Plus upright microscope. Motoneurons were identified visually under an infrared differential interference contrast (DIC) video-microscope. The largest multipolar cells (15-20 μm diameters) with bright somas were identified as motoneurons. Borosilicate glass patch pipettes (BF 150-86-10; Sutter Instrument Company) with a resistance of 6-10 MΩ were made using a Sutter P97 pipette puller (Sutter Instrument Company). Current-clamp and voltage-clamp recordings were made using a Multiclamp 700 A amplifier (Axon instruments). The pipette (intracellular) solution contained 1 mM EGTA, 140 mM K-gluconate, 2 mM MgCl2, 2 mM Na2ATP and 10 mM HEPES (pH 7.2). NBActiv4 medium plus 10 mM HEPES (pH 7.2) was used as the extracellular solution.
After the formation of a giga-ohm seal and membrane puncture, the cell capacitance was compensated. Signals were filtered at 3 kHz and sampled at 20 kHz using a Digidata 1322A interface (Axon Instruments). Data recording and analysis were performed with pClamp8 software (Axon Instruments). Membrane potentials were corrected by subtraction of a 15 mV tip potential, which was calculated using Axon's pClamp8 program. Depolarization-evoked inward and outward currents were examined in voltage-clamp mode. Depolarization-evoked action potentials were examined in current-clamp mode and induced using 1 second depolarizing current injections from a −70 mV holding potential. Action potentials elicited in response to 200 μM glutamate (an excitatory neurotransmitter) (Sigma-Aldrich) injection into the extracellular solution were likewise measured in current-clamp mode from a −70 mV holding potential.
Patch-clamp recordings verified the ability of the co-culture protocol to promote the maturation of electrically-active motoneurons after 11-13 days in culture. […]

neuromuscular junction = type: cell-based

COc1cc2c3cc1Oc1cc(ccc1O)C[C@@H]1c4c(cc(OC)c(O)c4Oc4ccc(cc4)C[C@@H]3N(C)CC2)CC[N+]1(C)C [D-tubocurarine]
average contraction frequency ([1]; 12.5 μM D-tubocurarine with glutamate): 1.4 Hz
contractile force compared with force in response to glutamate ([1]; 12.5 μM D-tubocurarine, co-culture): not significantly different
contractile force (average peak force) ([1]; after addition of 12.5 μM D-tubocurarine, co-culture): 45.1 nN
effect on glutamate-increased contraction frequency ([1]; all cases of glutamate increasing contraction frequency by at least 2 Hz): returned the contraction frequency to spontaneous levels
inhibitory effect on myotube contraction ([2]; 12.5 μM D-tubocurarine, all control cases): no inhibitory effect on myotube contraction
contraction frequency compared with frequency in response to glutamate ([2]; 12.5 μM D-tubocurarine, muscle-only controls, p=0.04): significant increase in contraction frequency

N[C@@H](CCC(=O)O)C(=O)O [glutamate]
duration of motoneuron activity in response to glutamate (ventral horn motoneurons; 200 μM glutamate bath application): roughly 2.5 minutes
response of motoneurons to bath application (membrane depolarization, action potentials) (ventral horn motoneurons; 200 μM glutamate, gap-free current-clamp, -70 mV holding potential, n=17): depolarization of the membrane and elicited action potentials in all motoneurons examined
response of patched motoneurons to a second application (ventral horn motoneurons; second application of glutamate, n=3): again depolarized the motoneuron membrane in all cells examined
average contraction frequency ([1]; 200 μM glutamate): 4.9 Hz
effect on force generated by contracting myotubes ([1]; glutamate, co-culture, n=10, p=0.60): no significant effect
contractile force (average peak force) ([1]; glutamate-evoked contractions, 200 μM, co-culture, spontaneous 106.0 nN): 67.4 nN
largest increase in contraction frequency in response to glutamate ([2]; 200 μM glutamate, muscle-only controls): 0.85 Hz
effect on contraction frequency ([2]; 200 μM glutamate, muscle-only cultures, n=10): did not significantly alter contraction frequency
effect on force generated by contracting myotubes ([2]; glutamate, muscle-only controls, n=7, p=0.24): no effect

α-Bungarotoxin
effect on myotube contractions, stimulation from first chamber (myotube side) (neuromuscular junction): did not inhibit contraction; also recorded: contractions are still possible
effect on myotube contractions, stimulation from second chamber (motoneuron side) (neuromuscular junction): less and less responsive; also recorded: decreased contraction of the myotubes
